This note sets out measurements from US8975400B2, “2,3-dihydroimidazo[1, 2-c] pyrimidin-5(1 H)-one compounds use as LP-PLA2 inhibitors” (Glaxo Group Limited, priority 2011, dated 2015).

One assay concerns the target T1, Lp-PLA2 in human plasma (Homo sapiens, UniProt Q13093).
T1 construct: This assay may detect the activity of Lp-PLA2 in human plasma; from tissue; host or cells: pooled human plasma
T1 sequence (Q13093 22-441): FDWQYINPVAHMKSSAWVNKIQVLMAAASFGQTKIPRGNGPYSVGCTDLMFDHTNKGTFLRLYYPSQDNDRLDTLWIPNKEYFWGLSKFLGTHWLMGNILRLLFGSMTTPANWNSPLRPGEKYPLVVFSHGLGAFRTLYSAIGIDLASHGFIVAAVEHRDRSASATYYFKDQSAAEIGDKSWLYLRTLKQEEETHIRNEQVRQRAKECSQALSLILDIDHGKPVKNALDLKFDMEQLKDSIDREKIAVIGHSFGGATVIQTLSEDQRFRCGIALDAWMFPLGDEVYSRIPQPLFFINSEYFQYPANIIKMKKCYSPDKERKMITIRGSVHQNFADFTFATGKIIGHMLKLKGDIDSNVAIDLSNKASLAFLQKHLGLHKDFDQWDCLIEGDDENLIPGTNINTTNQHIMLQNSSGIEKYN
Briefly: Lp-PLA2 human plasma assay (Thio-PAF assay). In kind it is biochemical. As to conditions: pooled human plasma, 2-thio-PAF substrate; read-out: pIC50 in the thio-PAF assay (converted). Put shortly:
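Pooled human plasma preincubated 30 min with serially diluted compounds, then 2-thio-PAF substrate with CPM and NEM added in 50 mM HEPES pH 7.4, 150 mM NaCl, 1 mM CHAPS. TFA-quenched after 2 min, 40 min at RT, fluorescence ex 380/em 485; pIC50 from curve fit.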

Assay [1] deals with T2, recombinant human Lp-PLA2 (Homo sapiens, UniProt Q13093).
T2 sequence (Q13093 22-441): T1 sequence (Q13093 22-441)
The assay can be described thus: Recombinant human Lp-PLA2 assay (rhLp-PLA2, PED6 assay). In kind it is biochemical. As to conditions: recombinant human Lp-PLA2, PED6 substrate; upper limit for pIC50 in this assay is 9.3. Put shortly: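 Compound preincubated 30 min with rhLp-PLA2 (4 nM or 110 pM) in 50 mM HEPES pH 7.4, 150 mM NaCl, 1 mM CHAPS, then PED6 substrate (4 μM or 5 μM) added. After 20 min at room temperature protected from light, fluorescence read at ex 480/em 540. pIC50 derived from serial-dilution curves.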

Counter-ions that a name gives are not always drawn.

Take `CN1CCn2c1cc(OCc1ccc(Oc3ccnc(C(F)(F)F)c3)cc1)nc2=O` [Example 123, 1-methyl-7-((4-((2-(trifluoromethyl)pyridin-4-yl)oxy)benzyl)oxy)-2,3-dihydroimid-azo[1,2-c]pyrimidin-5(1H)-one]: the IC50 is ≤ 1000 nM on Lp-PLA2 in human plasma and ≤ 10 nM in assay [1].
For the compound `CN1CCn2c1cc(OCc1cc(F)c(Oc3cccc(Cl)c3)c(F)c1)nc2=O` [Example E82, 7-((4-(3-chlorophenoxy)-3,5-difluorobenzyl)oxy)1-methyl-2,3-dihydroimidazo[1,2-c]pyrimidin-5(1H)-one], the IC50 on Lp-PLA2 in human plasma is ≤ 1000 nM; in assay [1], ≤ 1 nM.
`N#Cc1cc(COc2cc3n(c(=O)n2)CCN3)ccc1Oc1ccc(C(F)(F)F)c(F)c1` [Example E65, 2-(3-fluoro-4-(trifluoromethyl)phenoxy)-5-(((5-oxo-1,2,3,5-tetrahydroimidazo[1,2-c]pyrimidin-7-yl)oxy)methyl)benzonitrile]: the results for the IC50 (at Lp-PLA2 in human plasma; in assay [1]) were ≤ 100 nM and 0.631 nM, respectively.
On to `Cc1cc(Oc2ccc(COc3cc4n(c(=O)n3)CCN4C)cc2F)ccc1C#N` [Example 149, 4-(2-fluoro-4-(((1-methyl-5-oxo-1,2,3,5-tetrahydroimidazo[1,2-c]pyrimidin-7-yl)oxy)methyl)phenoxy)-2-methylbenzonitrile], for which the IC50 at Lp-PLA2 in human plasma was ≤ 1000 nM; in assay [1] it was ≤ 10 nM.
For `CN1CCn2c1cc(OCc1cc(F)c(Oc3cccc(C(F)(F)F)c3)c(F)c1)nc2=O` [Example 102, 7-((3,5-difluoro-4-(3-(trifluoromethyl)phenoxy)benzyl)oxy)-1-methyl-2,3-dihydroimidazo[1,2-c]pyrimidin-5(1H)-one], in that order: ≤ 100 nM and ≤ 1 nM.
For `CN1CCn2c1cc(OCc1ccc(Oc3cc(C#N)cc(C(F)(F)F)c3)c(F)c1)nc2=O` [Example 150, 3-(2-fluoro-4-(((1-methyl-5-oxo-1,2,3,5-tetrahydroimidazo[1,2-c]pyrimidin-7-yl)oxy)methyl)phenoxy)-5-(trifluoromethyl)benzonitrile, trifluoroacetic acid salt], in that order: ≤ 100 nM and ≤ 10 nM.
Turning to `N#Cc1cc(COc2cc3n(c(=O)n2)CCN3)ccc1Oc1ccc(C(F)(F)F)nc1` [Example 93, 5-(((5-oxo-1,2,3,5-tetrahydroimidazo[1,2-c]pyrimidin-7-yl)oxy)methyl)-2-((6-(trifluoromethyl)pyridin-3-yl)oxy)benzonitrile, trifluoroacetic acid salt], the IC50 is ≤ 100 nM on Lp-PLA2 in human plasma and ≤ 10 nM in assay [1].
On the same counts, the results for `CN1CCn2c1cc(OCc1ccc(Oc3ccnc(C(F)(F)F)c3)c(F)c1)nc2=O` [Example 94, 7-((3-fluoro-4-((2-(trifluoromethyl)pyridin-4-yl)oxy)benzyl)oxy)-1-methyl-2,3-dihydroimidazo[1,2-c]pyrimidin-5(1H)-one] are ≤ 100 nM and 1.58 nM.
Turning to `N#Cc1ccc(Oc2ccc(COc3cc4n(c(=O)n3)CCN4)cc2C#N)cc1F` [Example E64, 4-(2-cyano-4-(((5-oxo-1,2,3,5-tetrahydroimidazo[1,2-c]pyrimidin-7-yl)oxy)methyl)p-henoxy)-2-fluorobenzonitrile], the IC50 on Lp-PLA2 in human plasma is ≤ 100 nM; in assay [1], ≤ 10 nM.
As for `CN1CCn2c1cc(OCc1ccc(Oc3ccnc(C#N)c3)c(C#N)c1)nc2=O` [Example 130, 4-(2-cyano-4-(((1-methyl-5-oxo-1,2,3,5-tetrahydroimidazo[1,2-c]pyrimidin-7-yl)oxy)methyl)phenoxy)picolinonitrile, trifluoroacetic acid salt], the IC50 is ≤ 100 nM at Lp-PLA2 in human plasma and ≤ 10 nM in assay [1].
Consider `CN1CCn2c1cc(OCc1ccc(Oc3ccnc(C#N)c3)c(F)c1)nc2=O` [Example 129, 4-(2-fluoro-4-(((1-methyl-5-oxo-1,2,3,5-tetrahydroimidazo[1,2-c]pyrimidin-7-yl)oxy)methyl)phenoxy)picolinonitrile, trifluoroacetic acid salt], for which the IC50 on Lp-PLA2 in human plasma is ≤ 1000 nM; in assay [1], ≤ 10 nM.
As for `CN1CCn2c1cc(OCc1ccc(Oc3ccc(Cl)nc3)c(F)c1)nc2=O` [Example 103, 7-((4-((6-chloropyridin-3-yl)oxy)-3-fluorobenzyl)oxy)-1-methyl-2,3-dihydroimid-azo[1,2-c]pyrimidin-5(1H)-one, trifluoroacetic acid salt], the IC50 was ≤ 100 nM on Lp-PLA2 in human plasma and ≤ 10 nM in assay [1].
For `CN1CCn2c1cc(OCc1ccc(Oc3ccc(C#N)c(C(F)(F)F)c3)c(F)c1)nc2=O` [Example E83, 4-(2-fluoro-4-(((1-methyl-5-oxo-1,2,3,5-tetrahydroimidazo[1,2-c]pyrimidin-7-yl)oxy)methyl)phenoxy)-2-(trifluoromethyl)benzonitrile, trifluoroacetic acid salt], in that order: ≤ 100 nM and 0.631 nM.
On the same counts, the results for `CN1CCn2c1cc(OCc1ccc(Oc3ccc(Cl)c(C#N)c3)c(F)c1)nc2=O` [Example 125, 2-chloro-5-(2-fluoro-4-(((1-methyl-5-oxo-1,2,3,5-tetrahydroimidazo[1,2-c]pyrimidin-7-yl)oxy)methyl)phenoxy)benzonitrile] are ≤ 100 nM and ≤ 1 nM.
For `CN1CCn2c1cc(OCc1ccc(Oc3cc(F)c(F)c(F)c3)c(C#N)c1)nc2=O` [Example E38, 5-(((1-methyl-5-oxo-1,2,3,5-tetrahydroimidazo[1,2-c]pyrimidin-7-yl)oxy)methyl)-2-(3,4,5-trifluorophenoxy)benzonitrile, trifluoroacetic acid salt], in that order: ≤ 1000 nM and ≤ 10 nM.
For the compound `CN1CCn2c1cc(OCc1ccc(Oc3ccc(F)c(C(F)(F)F)c3)c(C#N)c1)nc2=O` [Example E44, 2-(4-fluoro-3-(trifluoromethyl)phenoxy)-5-(((1-methyl-5-oxo-1,2,3,5-tetrahydroi-midazo[1,2-c]pyrimidin-7-yl)oxy)methyl)benzonitrile, trifluoroacetic acid salt], the IC50 on Lp-PLA2 in human plasma is ≤ 100 nM; in assay [1], < 0.501 nM.
On the same counts, the results for `CN1CCn2c1cc(OCc1ccc(Oc3cncc(Cl)c3)c(C#N)c1)nc2=O` [Example 134, 2-((5-chloropyridin-3-yl)oxy)-5-(((1-methyl-5-oxo-1,2,3,5-tetrahydroimidazo[1,2-c]pyrimidin-7-yl)oxy)methyl)benzonitrile] are ≤ 100 nM and ≤ 10 nM.
Consider `CN1CCn2c1cc(OCc1ccc(Oc3ccc(C#N)c(C(F)(F)F)c3)c(C#N)c1)nc2=O` [Example E78, 4-(2-cyano-4-(((l-methyl-5-oxo-1,2,3,5-tetrahydroimidazo[1,2-c]pyrimidin-7-yl)oxy)methyl)phenoxy)-2-(trifluoromethyl)benzonitrile], for which the IC50 is ≤ 100 nM at Lp-PLA2 in human plasma and < 0.501 nM in assay [1].
On the same counts, the results for `N#Cc1cc(COc2cc3n(c(=O)n2)CCN3)ccc1Oc1cccc(C(F)(F)F)c1` [Example E67, 5-(((5-oxo-1,2,3,5-tetrahydroimidazo[1,2-c]pyrimidin-7-yl)oxy)methyl)-2-(3-(trifluoromethyl)phenoxy)benzonitrile] are ≤ 100 nM and ≤ 1 nM.
